Experimental data published in patent US4853221A, “Method for treating non-small cell lung cancer, head and neck cancers and breast cancer” (Warner-Lambert Company, priority 1987, dated 1989).

What was measured:
Oral bioavailability = details: in vivo, administered orally
Lewis lung carcinoma = assay: Antitumor activity against Lewis lung carcinoma in mice; format: in vivo, mouse; details: optimal dose 40 mg/kg (dose range 40-1.25), IV daily, Days 1-9
Procedure: The growth inhibition properties of 5-methyl-6-[[(3,4,5-trimethoxyphenyl)amino]methyl]-2,4-quinazolinediamine (trimetrexate) against several transplanted murine tumors were evaluated employing the antitumor screening program of the Drug Evaluation Branch of the National Cancer Institute. The protocols for these tests is described in Cancer Chemotherapy Reports, 3: 1-103 (1972). The dosing schedules are results from these tests appear in Table IV.
Percent increase in median life span (% ILS) values appearing in the tables were calculated from the formula; 100×(median life span in days of treated mice minus median life span in days of untreated mice) divided by median life span in days of untreated control mice. That is, % ILS=[100×(T-C)]/C. % T/C and %ILS are directly interconvertible by the formula % ILS=% T/C -100.
In all of the mouse tumor studies described above, routine controls consisted of matching ten normal mice (with no tumors) to each tumor-bearing treatment group and injecting them with the same drug at the same dosages, schedules, days of administration, and drug route as the tumor-bearing mice. In this way, drug-induced toxicity (lethality and weight loss) could be clearly separated from the effects of the drug on the tumors.

breast cancer = assay: Phase II trial, breast cancer; format: in vivo, human
Procedure: The efficacy and safety of trimetrexate in the treatment of patients with breast cancer was evaluated in an 10-center Phase II study. Twenty-eight patients participated in the multicenter study, with a group of 20 patients considered evaluable. […] All patients had metastatic disease and the principal sites of metastasis included lung, bone, and liver.
Patients were initially treated intravenously with 8 mg/m^2 /day of trimetrexate on Days 1 through 5 of a 21-day treatment cycle. Patients were evaluated after each treatment course and were withdrawn from the study if progressive disease was documented. Patients were eligible to received six courses of treatment if stable disease was documented; treatment beyond six courses was left to the discretion of the physician. The dose of trimetrexate was adjusted for each patient prior to each subsequent course of treatment based upon the patient reaction to the drug in the preceding course of treatment, and ranged from 8 mg/m^2 /day to about […]. A total of 91 courses of treatment were administered to the patients in the study.

[1] = test system: Early Stage P388 Leukemia; assay: Combination chemotherapy, therapeutic synergy against early stage P388 leukemia; format: in vivo, mouse; details: Test 1
Procedure: Several studies were carried out to determine the potential for therapeutic synergy of trimetrexate with several clinically active anticancer agents. […] (See, for example, Vendetti, "Relevance of Transplantable Animal-Tumor Systems to the Selection of New Agents for Clinical Trial," Pharmacological Basis of Cancer Chemotherapy. Williams and Wilkins, Baltimore, 1975, and Simpson Herren, et al., "Evaluation of In Vivo Tumor Models for Predicting Clinical Activity for Anticancer Drugs," Proc. Am. Assoc. Cancer Res., 26: 330 (1985).
Differences in cell kill of greater than ten-fold (one log) were considered indicative of therapeutic synergy.
CD2F1 mice were quarantined for at least two weeks prior to allocation to test groups. P388 leukemia was passaged in DBA2 mice according to standard protocols of the National Cancer Institute. On Day 0 of a given test, all mice in the test were randomized, injected intraperitoneally with suitably diluted ascites fluid from P388 tumor-bearing donor mice and rerandomized to test cages.
The initial inoculum for all but titration groups was 10^6 cells as determined by hemocytometer count. Each experiment contained an internal control and tumor titration which enabled the determination of the tumor doubling time and estimates of the log cell kill and number of tumor cells surviving treatment.
Drug treatment was begun either on Day 1 or on Day 4 depending upon the relative activity of the agents being tested.
All of the drugs were injected within one hour of dissolution, with the exception of trimetrexate which was made up fresh twice daily. All mice were treated on the basis of average cage-group weight.
In drug combination regimens, trimetrexate was given approximately 30 minutes before the other therapeutic agents when the route of administration of the other agent was ip. […]
Group average weights were determined for all groups on Days 1, 5, and 9 for "early stage" P388 tests and on Days 4, 8, and 12 for "advanced stage" P388 tests. Animals were monitored for life span. […]

B-Cell 8392 = assay: Inhibition of B-Cell 8392 growth in vitro; format: cell-based, human; details: 48 h; Human B-Cell 8392; read-out: ED50 (the source's name)
Procedure: Logarithmically growing L1210 cells (approximately 3×10^5 cells/ml) were diluted with Fischer's medium (containing 10% horse serum) to an approximate concentration of 5×10^4 cells/ml. Cells were planted in duplicate into 15 ml culture tubes containing either no drug or various amounts of drug, and incubated for 48 hours at 37° C. before being counted.
Trimetrexate was also evaluated in a similar manner side-by-side with methotrexate for its effect on the growth of three additional murine cell lines (L5178Y, Sarcoma-180, and Walkler-256) and three human cell lines (acute myelogenous leukemia K-562, T-cell 8402, and B-cell 8392), propagated in vitro.

COc1cc(NCc2ccc3nc(N)nc(N)c3c2C)cc(OC)c1OC [Trimetrexate, 5-methyl-6-[[(3,4,5-trimethoxyphenyl)amino]methyl]-2,4-quinazolinediamine]
bioavailability (Oral bioavailability): ~80% | Life Span % T/C (Lewis lung carcinoma): Negligible | patients with stable disease (breast cancer; 20 evaluable patients): 10 patients | patients with partial response (breast cancer; 20 evaluable patients, initial 8 mg/m^2/day iv Days 1-5 of 21-day cycle): 3 patients | partial response rate (breast cancer; p5% confidence interval 0-30.6%, 20 evaluable patients): 15% | median duration of partial response (breast cancer; range 6.4-18.7+ weeks): 13.1 weeks | single agent activity [1]: the more active of the two single agents | IC50 (B-Cell 8392): 5 nM
